Target: T1, system xc− (obligate cystine-glutamate transporter) (Homo sapiens, UniProt Q9UPY5)
T1 sequence (Q9UPY5 1-501): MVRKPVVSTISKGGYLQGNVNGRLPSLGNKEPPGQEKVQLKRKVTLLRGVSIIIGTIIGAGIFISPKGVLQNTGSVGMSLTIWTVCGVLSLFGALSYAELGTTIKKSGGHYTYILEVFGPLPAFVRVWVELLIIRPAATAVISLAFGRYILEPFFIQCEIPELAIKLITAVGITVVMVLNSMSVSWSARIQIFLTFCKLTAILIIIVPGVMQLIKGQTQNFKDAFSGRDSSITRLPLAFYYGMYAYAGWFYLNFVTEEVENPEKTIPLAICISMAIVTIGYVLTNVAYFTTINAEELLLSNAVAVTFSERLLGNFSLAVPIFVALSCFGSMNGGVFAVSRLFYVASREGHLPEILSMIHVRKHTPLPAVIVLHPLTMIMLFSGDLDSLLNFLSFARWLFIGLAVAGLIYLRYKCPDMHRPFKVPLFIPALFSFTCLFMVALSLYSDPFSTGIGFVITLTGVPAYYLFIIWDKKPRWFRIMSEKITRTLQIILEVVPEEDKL
T1 sequence (P08195 2-529 partner): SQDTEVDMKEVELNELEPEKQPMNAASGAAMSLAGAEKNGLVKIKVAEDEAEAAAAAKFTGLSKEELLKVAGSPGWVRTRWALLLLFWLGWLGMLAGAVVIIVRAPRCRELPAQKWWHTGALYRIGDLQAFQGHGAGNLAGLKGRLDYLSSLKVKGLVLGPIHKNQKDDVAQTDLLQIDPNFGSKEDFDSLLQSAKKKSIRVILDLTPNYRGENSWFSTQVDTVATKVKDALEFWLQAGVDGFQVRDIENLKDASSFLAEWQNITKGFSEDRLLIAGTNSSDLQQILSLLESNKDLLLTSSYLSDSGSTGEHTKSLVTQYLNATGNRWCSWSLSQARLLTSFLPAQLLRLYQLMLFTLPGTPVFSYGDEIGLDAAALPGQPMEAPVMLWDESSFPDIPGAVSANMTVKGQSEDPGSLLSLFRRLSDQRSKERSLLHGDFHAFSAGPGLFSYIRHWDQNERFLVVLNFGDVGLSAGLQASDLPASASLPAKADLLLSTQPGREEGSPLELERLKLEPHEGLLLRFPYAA
Experiment: inhibition of 3H-L-glutamate uptake
Assay type: cell-based
Settings: SNB-19, read-out: Uptake ^a Sxc^-

With `N[C@@H](CSSC[C@H](N)C(=O)O)C(=O)O` [L-Cystine] the activity at 500 µM was 22 ± 3%.

— publication PMC3159025 (2011)
